According to US20260365653A1, “IRREVERSIBLE MUTEGFR INHIBITORS” (Bayer Aktiengesellschaft, priority 2022, published 2026):

Assays:
[1] = molecular target: T1, mutEGFR (D770_N771insSVD) (Homo sapiens, UniProt P00533, DUP768-770); test: Exon20-Mutant-EGFR (D770_N771insSVD) kinase assay (TR-FRET); type: biochemical; details: mutEGFR (D770_N771insSVD) kinase assay IC50, Table 2a; D770_N771insSVD; 2 mM ATP
T1 construct: GST-EGFR #3 (SVD between D770 and N771); made in house; host or cells: Sf9 insect cells (baculovirus)
T1 sequence (P00533 with tags, fused parts or gaps DUP768-770): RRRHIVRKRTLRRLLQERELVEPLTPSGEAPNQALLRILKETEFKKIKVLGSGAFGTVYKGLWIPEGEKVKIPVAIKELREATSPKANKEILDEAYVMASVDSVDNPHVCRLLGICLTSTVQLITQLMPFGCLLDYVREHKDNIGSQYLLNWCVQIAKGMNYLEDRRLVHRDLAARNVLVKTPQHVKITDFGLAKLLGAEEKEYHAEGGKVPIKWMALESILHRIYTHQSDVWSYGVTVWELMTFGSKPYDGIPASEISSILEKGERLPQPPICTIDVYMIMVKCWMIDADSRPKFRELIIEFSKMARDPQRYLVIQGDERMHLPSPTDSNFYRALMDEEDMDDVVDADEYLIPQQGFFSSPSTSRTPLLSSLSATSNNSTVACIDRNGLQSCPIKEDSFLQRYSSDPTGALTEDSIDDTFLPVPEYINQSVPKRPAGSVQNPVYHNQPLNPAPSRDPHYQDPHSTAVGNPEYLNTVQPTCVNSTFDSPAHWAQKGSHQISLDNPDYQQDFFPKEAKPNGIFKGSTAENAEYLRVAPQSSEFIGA

[2] = molecular target: T2, mutEGFR (D770_N771insNPG, T790) (Homo sapiens, UniProt P00533, INS770NPG/T790M); test: mutEGFR (D770_N771insNPG, T790) kinase assay; type: biochemical; details: Table 2a, D770_N771insNPG
T2 construct: exact insNPG construct not described; in-house EGFR proteins were N-terminal GST fusions from baculovirus/insect cells (borders R669-A1210 given only for WT, insSVD, insASV)
T2 sequence (P00533 with tags, fused parts or gaps INS770NPG/T790M limits assumed): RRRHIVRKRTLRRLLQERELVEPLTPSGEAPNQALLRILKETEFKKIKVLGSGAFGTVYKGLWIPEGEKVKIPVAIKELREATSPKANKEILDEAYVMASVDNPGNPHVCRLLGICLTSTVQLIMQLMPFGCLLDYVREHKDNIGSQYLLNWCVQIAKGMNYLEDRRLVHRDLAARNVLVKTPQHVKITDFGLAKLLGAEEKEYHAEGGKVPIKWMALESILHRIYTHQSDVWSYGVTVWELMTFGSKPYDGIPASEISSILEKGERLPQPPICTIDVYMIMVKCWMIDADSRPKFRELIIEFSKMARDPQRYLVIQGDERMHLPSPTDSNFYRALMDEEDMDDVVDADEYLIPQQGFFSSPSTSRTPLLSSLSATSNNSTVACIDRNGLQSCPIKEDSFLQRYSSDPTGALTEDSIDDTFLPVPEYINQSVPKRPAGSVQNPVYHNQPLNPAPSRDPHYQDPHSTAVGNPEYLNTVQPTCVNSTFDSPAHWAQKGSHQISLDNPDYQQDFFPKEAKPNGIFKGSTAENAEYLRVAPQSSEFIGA
From the text: The different EGFR proteins used in the biochemical kinase activity inhibition assays were generated inhouse by expression in insect cells using Baculo Virus system and subsequent purification as described in the following paragraphs.
The cDNAs encoding the various protein sequences from human EGFR human (P00533) were optimized for expression in eukaryotic cells and synthesized by the GeneArt Technology at Life Technologies.

[3] = system: BA/F3 (insSVD) cells; test: Ba/F3-EGFR-insSVD cell survival assay (Cell Titer-Glo); type: cell-based; details: Table 3a, cell survival, Cell Titer-Glo, with 10 ng/ml EGF, without IL-3
Description: Cellular Data Description (WT, insSVD, insSVD T790M) 293T cells from ATCC were transfected with pBABEpuro expression constructs for WT EGFR or EGFR-insSVD, or EGFR-insSVD T790M, and pCL-Eco packaging vector using Fugene-6 transfection reagent from Promega. Plates were incubated at 37° C. for 48 h. Retrovirus was harvested by filtering the media supernatant through a 0.45 μm filter.
Ba/F3 cells purchased from DSMZ were grown in RPMI+10% FBS+10 ng/ml IL-3 and infected with filtered retroviral supernatant at a 1:2 dilution. Polybrene was added to a concentration of 8 μg/mL, plates were spun for 90 min, and incubated for 16 h at 37° C. 2 μg/mL puromycin was added to the infected cells 24 h after infection and cells were continually grown in the presence of puromycin and 10 ng/ml IL-3. Following stably expressing Ba/F3 cell lines were generated: Ba/F3-EGFR-WT, Ba/F3-EGFR-insSVD, Ba/F3-EGFR-insSVD T790M, (Ba/F3-vector-control).
For cell survival assays, Ba/F3 cells were grown to a density of 1-2 million cells per mL, spun down and resuspended in media without IL-3, and replated at a concentration of 200,000-500,000 cells per mL. The cells ectopically expressing WT EGFR, EGFR-insSVD, or EGFR-insSVD T790M were plated with 10 ng/ml Millipore Culture grade EGF. The cells ectopically expressing pBABEpuro empty vector were plated with 10 ng/mL IL-3.
2 days later, cells were plated in 50 µL in a 384 well plate at a concentration of 4000 cells per well for cells assayed in the absence of IL-3 and 2000 cells per well for cells assayed in the presence of IL-3. 100 nL of compound was added to each well using a 100 nL pin head, and plates were incubated at 37° C. for 48 h.
Cell viability was measured by adding 20 μL of Cell Titer-Glo Luminescent Cell Viability Reagent diluted 1:3 in PBS. Plates were sealed with Perkin Elmer Top-Seal, inverted several times to mix, and immediately centrifuged at 1000 rpm for 2 min. Plates were incubated in low light conditions for 8-10 min and luminescence was measured.

Row | Compound | IC50 [1] [nM] | IC50 [2] [nM] | IC50 ([3]; Mus musculus, BaF3, 48 h) [nM] | IC50 ([3]; 48 h) [nM]
1 | CC(C)(C)OC(=O)N1CCCC1C#CC(=O)N1CCn2nc(-c3ccc(F)cc3)c(-c3ccncc3)c2C1 (racemic) [Example 87, tert-butyl(2RS)-2-(3-[2-(4-fluorophenyl)-3-(pyridin-4-yl)-6,7-dihydropyrazolo[1,5-a]pyrazin-5(4H)-yl]-3-oxoprop-1-yn-1-yl) pyrrolidine-1-carboxylate] | 53.1 | 82.5 | 1060 | 
2 | O=C(C#CC1CCCN1)N1CCn2nc(-c3ccc(F)cc3)c(-c3ccncc3)c2C1 (racemic) [Example 88, 1-[2-(4-fluorophenyl)-3-(pyridin-4-yl)-6,7-dihydropyrazolo[1,5-a]pyrazin-5(4H)-yl]-3-[(2RS)-pyrrolidin-2-yl]prop-2-yn-1-one] | 9.27 | 15.8 | 3790 | 
3 | CN(C)C/C=C/C(=O)N1Cc2c(-c3ccncc3)c(-c3ccc(F)cc3)nn2C(CO)C1 (racemic) [Example 201, rac-(R,E)-4-(dimethylamino)-1-(2-(4-fluorophenyl)-7-(hydroxymethyl)-3-(pyridin-4-yl)-6,7-dihydropyrazolo[1,5-a]pyrazin-5(4H)-yl) but-2-en-1-one] | 1.67 | 3.42 | 423 | 
4 | CN(C)C/C=C/C(=O)N1Cc2c(-c3ccncc3)c(-c3ccc(F)cc3)nn2C(C(N)=O)C1 (racemic) [Example 202, (7RS)-5-[(2E)-4-(dimethylamino)but-2-enoyl]-2-(4-fluorophenyl)-3-(pyridin-4-yl)-4,5,6,7-tetrahydropyrazolo[1,5-a]pyrazine-7-carboxamide] | 57.4 | 225 | 9980 | 
5 | C=CC(=O)N1Cc2c(-c3ccncc3)c(-c3ccc(F)cc3)nn2C(C(N)=O)C1 (racemic) [Example 204, (7RS)-5-acryloyl-2-(4-fluorophenyl)-3-(pyridin-4-yl)-4,5,6,7-tetrahydropyrazolo[1,5-a]pyrazine-7-carboxamide] | 4.61 | 17.2 | 134 | 
6 | CN(C)C/C=C/C(=O)N1Cc2c(-c3ccncc3)c(-c3ccc(F)cc3)nn2C(CCO)C1 (racemic) [Example 219, rac-(R,E)-4-(dimethylamino)-1-(2-(4-fluorophenyl)-7-(2-hydroxyethyl)-3-(pyridin-4-yl)-6,7-dihydropyrazolo[1,5-a]pyrazin-5(4H)-yl) but-2-en-1-one] | 0.715 | 1.21 | 308 | 
7 | CN(C)C/C=C/C(=O)N1Cc2c(-c3ccncc3)c(-c3ccc(F)cc3)nn2C(CC(N)=O)C1 (racemic) [Example 220, 2-[(7RS)-5-[(2E)-4-(dimethylamino)but-2-enoyl]-2-(4-fluorophenyl)-3-(pyridin-4-yl)-4,5,6,7-tetrahydropyrazolo[1,5-a]pyrazin-7-yl]acetamide] | 4.15 | 9.66 | 5880 | 
8 | CNC(=O)CC1CN(C(=O)/C=C/CN(C)C)Cc2c(-c3ccncc3)c(-c3ccc(F)cc3)nn21 (racemic) [Example 221, 2-[(7RS)-5-[(2E)-4-(dimethylamino)but-2-enoyl]-2-(4-fluorophenyl)-3-(pyridin-4-yl)-4,5,6,7-tetrahydropyrazolo[1,5-a]pyrazin-7-yl]-N-methylacetamide] | 3.69 | 15.3 | 2510 | 
9 | C=CC(=O)N1C(C)c2c(-c3ccncc3)c(-c3ccc(Cl)cc3F)nn2C[C@H]1C (single isomer, unassigned; isomer 1) [Example 290] | 1180 |  |  | 3430
10 | C=CC(=O)N1C(C)c2c(-c3ccncc3)c(-c3ccc(Cl)cc3F)nn2C[C@H]1C (single isomer, unassigned; isomer 2) [Example 291] | 1.11 |  |  | 53
11 | CNC/C=C/C(=O)N1CCn2nc(-c3ccc(F)cc3)c(-c3ccncc3)c2C1 [Example 80, (2E)-1-[2-(4-fluorophenyl)-3-(pyridin-4-yl)-6,7-dihydropyrazolo[1,5-a]pyrazin-5(4H)-yl]-4-(methylamino)but-2-en-1-one] | 19.4 |  | 1370 | 
12 | CCNC/C=C/C(=O)N1CCn2nc(-c3ccc(F)cc3)c(-c3ccncc3)c2C1 [Example 81, (2E)-4-(ethylamino)-1-[2-(4-fluorophenyl)-3-(pyridin-4-yl)-6,7-dihydropyrazolo[1,5-a]pyrazin-5(4H)-yl]but-2-en-1-one] | 4.15 |  | 134 | 
13 | CN1CCN(C/C=C/C(=O)N2CCn3nc(-c4ccc(F)cc4)c(-c4ccncc4)c3C2)CC1 [Example 82, (2E)-1-[2-(4-fluorophenyl)-3-(pyridin-4-yl)-6,7-dihydropyrazolo[1,5-a]pyrazin-5(4H)-yl]-4-(4-methylpiperazin-1-yl) but-2-en-1-one] | 29.6 |  | 739 | 
14 | C=CC(=O)N1CCn2nc(-c3cccc(CO)c3)c(-c3ccncc3)c2C1 [Example 121, 1-{2-[3-(hydroxymethyl)phenyl]-3-(pyridin-4-yl)-6,7-dihydropyrazolo[1,5-a]pyrazin-5(4H)-yl}prop-2-en-1-one] | 1.88 |  | 213 | 
15 | C=CC(=O)N1Cc2c(-c3ccncc3)c(-c3ccc(C(F)(F)F)cc3F)nn2C[C@H]1C [Example 125, 1-[(6R)-2-[2-fluoro-4-(trifluoromethyl)phenyl]-6-methyl-3-(pyridin-4-yl)-6,7-dihydropyrazolo[1,5-a]pyrazin-5(4H)-yl]prop-2-en-1-one] | 1.12 |  | 45.5 | 
16 | CN(C/C=C/C(=O)N1CCn2nc(-c3ccc(Cl)cc3)c(-c3ccncc3)c2C1)CCO [Example 170, (2E)-1-[2-(4-chlorophenyl)-3-(pyridin-4-yl)-6,7-dihydropyrazolo[1,5-a]pyrazin-5(4H)-yl]-4-[(2-hydroxyethyl)(methyl)amino]but-2-en-1-one] | 0.38 |  | 190 | 
17 | C=CC(=O)N1CCn2nc(-c3cccc(Cl)c3F)c(-c3ccnc4[nH]cc(C)c34)c2C1 [Example 176, 1-[2-(3-chloro-2-fluorophenyl)-3-(3-methyl-1H-pyrrolo[2,3-b]pyridin-4-yl)-6,7-dihydropyrazolo[1,5-a]pyrazin-5(4H)-yl]prop-2-en-1-one] | 166 |  | 62.7 | 
18 | C=CC(=O)N1CCn2nc(-c3cccc(C(F)(F)F)c3)c(-c3ccnc4[nH]cc(C)c34)c2C1 [Example 178, 1-(3-(3-methyl-1H-pyrrolo[2,3-b]pyridin-4-yl)-2-(3-(trifluoromethyl)phenyl)-6,7-dihydropyrazolo[1,5-a]pyrazin-5(4H)-yl) prop-2-en-1-one] | 207 |  | 58.6 | 
19 | C=CC(=O)N1CCn2nc(-c3ccc4cc(F)sc4c3)c(-c3ccnc4[nH]cc(C)c34)c2C1 [Example 181, 1-[2-(2-fluoro-1-benzothiophen-6-yl)-3-(3-methyl-1H-pyrrolo[2,3-b]pyridin-4-yl)-6,7-dihydropyrazolo[1,5-a]pyrazin-5(4H)-yl]prop-2-en-1-one] | 59.6 |  | 64.1 | 
20 | Cc1c[nH]c2nccc(-c3c(-c4cccc(C(F)(F)F)c4)nn4c3CN(C(=O)/C=C/CN(C)C)CC4)c12 [Example 185, (E)-4-(dimethylamino)-1-(3-(3-methyl-1H-pyrrolo[2,3-b]pyridin-4-yl)-2-(3-(trifluoromethyl)phenyl)-6,7-dihydropyrazolo[1,5-a]pyrazin-5(4H)-yl) but-2-en-1-one] | 233 |  | 68.8 | 
21 | Cc1c[nH]c2nccc(-c3c(-c4ccc5cc(F)sc5c4)nn4c3CN(C(=O)/C=C/CN(C)C)CC4)c12 [Example 187, (2E)-4-(dimethylamino)-1-[2-(2-fluoro-1-benzothiophen-6-yl)-3-(3-methyl-1H-pyrrolo[2,3-b]pyridin-4-yl)-6,7-dihydropyrazolo[1,5-a]pyrazin-5(4H)-yl]but-2-en-1-one] | 30 |  |  | 
